{"source": "paper PMC2063346", "about": "“Cyclosporin A as a multidrug-resistant modulator in patients with renal cell carcinoma treated with teniposide” (British Journal of Cancer, 1997)", "key": {"[1]": {"assay": "VM26 plasma pharmacokinetics alone and with CSA (HPLC, compartmental model)", "assay_type": "in vivo, patients", "protocol": "(§1) British Joumal of Cancer (1997) 75(5), 715-721 ? […] Sixteen patients initially received VM26 alone (200 mg m-2 day-' i.v.). […] For this reason, new approaches are highly recommended after a first-line treatment, usually interleukin 2 based (Yagoda et al, 1995). […] P-gp deter- mines reduced intracellular drug accumulation and/or altered intracellular drug compartmentation, preventing drugs from reaching the intracellular target site (Skovsgaard, 1978, Schuurhuis et al, 1989). […] Received 2 June 1996 Revised 2 October 1996 Accepted 17 October 1996 Correspondence to: M Boiocchi, Division of Experimental Oncology 1, Centro di Riferimento Oncologico, via Pedemontana Occidentale 12, 33081 Aviano (PN), Italy Although many chemosensitizers have been used successfully in vitro in MDR cell lines, their potential therapeutic role in the clinical setting remains an intriguing issue. […] This could determine alteration in the pharmacokinetics and pharmacodynamics of the cytotoxic agents (Lum et al, 1992; Wilson et al, 1995). […] The study was approved by the local ethics committee and informed consent was obtained from all patients. Treatment protocol The patients received the first course of VM26 (Vumon; Bristol Myers, Rome, Italy) at the dosage of 200 mg m-2 day-' i.v. every 3 weeks. The second cycle (same dosage) was administered in the event of response or stable disease, if no toxicity was documented. In the event of grade 4 toxicity the dose was reduced by 25%. […] The patients were clinically evaluated according to the usual phase II trials criteria (WHO), and blood tests were performed weekly. […] To determine the VM26 level, 5-ml blood samples were drawn from peripheral vein and collected in heparinized glass tubes before treatment at 0 h (i.e. immediately before the begin- ning of i.v. infusion of VM26) and at 1,6, 12, 18, 24,24.5,25,26, 28, 32, 36, 48 and 60h. Plasma samples, which were separated after centrifugation at 1000 g for 10 min, were kept frozen at - 20'C until analysis. Urine samples were collected before, during and after VM26 treatment. Each 12-h sample from well-stirred urine was stored and kept frozen at -20?C until analysis. […] These samples were frozen at -70?C until analysis. Drug assays The method used to determine VM26 in plasma samples was that described by Evans et al (1982). Briefly, 1 ml of plasma or urine was extracted with 8 ml of chloroform containing VP16 (100 gl of a 200-,ug ml solution) as internal standard. After 20-min shaking at +4?C, samples were centrifuged at 1500 g for 20 min at +4?C. The organic phase was dried under vacuum and then redissolved with 200 gl of methanol; 50 µl of this solution as injected into an LKB-Pharmacia (Cambridge, UK) high-performance liquid chro- matography (HPLC) system equipped with an absorbance detector set at 254 nm. Separation was achieved using an isocratic solvent system of water-acetonitrile-acetic acid (64:35:1) at a flow of 1 ml min-, using a 300 x 3.9-mm long ,uBondapak phenyl column (Waters, New York, NY, USA). Peak areas were quantitated with an LKB integrator. […] To calculate the concentrations of VM26, the internal standard method was adopted. […] Pharmacokinetic analyses To define the plasma concentration-time function and to estimate pharmacokinetic parameters of VM26 for each patient, a compart- mental model was adopted. Drug infusion and non-saturable elim- ination processes were considered zero-order and first-order processes respectively. Estimates of pharmacokinetic parameters [apparent volume of distribution (V); elimination half-life (t1,2p); systemic clearance (CI); maximum drug concentration (Cmax); and area under curve (AUC)] of VM26 and the numerical validation of the model were obtained by PCNONLIN 4.0, a non-linear regression program."}, "[2]": {"assay": "Total and renal clearance of VM26 (urine collection, seven patients)", "assay_type": "in vivo", "protocol": "British Joumal of Cancer (1997) 75(5), 715-721 ? […] Sixteen patients initially received VM26 alone (200 mg m-2 day-' i.v.). […] For this reason, new approaches are highly recommended after a first-line treatment, usually interleukin 2 based (Yagoda et al, 1995). […] P-gp deter- mines reduced intracellular drug accumulation and/or altered intracellular drug compartmentation, preventing drugs from reaching the intracellular target site (Skovsgaard, 1978, Schuurhuis et al, 1989). […] Received 2 June 1996 Revised 2 October 1996 Accepted 17 October 1996 Correspondence to: M Boiocchi, Division of Experimental Oncology 1, Centro di Riferimento Oncologico, via Pedemontana Occidentale 12, 33081 Aviano (PN), Italy Although many chemosensitizers have been used successfully in vitro in MDR cell lines, their potential therapeutic role in the clinical setting remains an intriguing issue. […] The patients were clinically evaluated according to the usual phase II trials criteria (WHO), and blood tests were performed weekly. […] The organic phase was dried under vacuum and then redissolved with 200 gl of methanol; 50 µl of this solution as injected into an LKB-Pharmacia (Cambridge, UK) high-performance liquid chro- matography (HPLC) system equipped with an absorbance detector set at 254 nm. […] Peak areas were quantitated with an LKB integrator. […]"}, "[3]": {"system": "metastatic renal cell carcinoma", "assay": "Treatment response, phase II (WHO criteria)", "assay_type": "in vivo, patients", "protocol": "as §1"}, "[4]": {"settings": "in vivo", "protocol": "as §1"}, "[5]": {"settings": "VM26 alone, first cycle, 16 patients"}, "[6]": {"settings": "nine patients after two courses of VM26 alone"}}}
{"smiles": "COc1cc([C@@H]2c3cc4c(cc3[C@@H](O[C@@H]3O[C@@H]5CO[C@@H](c6cccs6)O[C@H]5[C@H](O)[C@H]3O)[C@H]3COC(=O)[C@H]23)OCO4)cc(OC)c1O", "note": "[VM26, teniposide]", "values": [{"measurement": "AUC of VM26, median (range)", "setting": "[1]; [5]", "result": "290.3 (168.4-791.0) mg l-1 h"}, {"measurement": "Cl of VM26, median (range)", "setting": "[1]; [5]", "result": "0.62 (0.25-1.2) l h-1 m-2"}, {"measurement": "Cmax of VM26, median (range)", "setting": "[1]; [5]", "result": "10.9 (7.0-22.3) mg l-1"}, {"measurement": "V of VM26, median (range)", "setting": "[1]; [5]", "result": "5.5 (4.4-9.0) l m-2"}, {"measurement": "t1/2 of VM26, median (range)", "setting": "[1]; [5]", "result": "6.8(2.8-14.8) h"}, {"measurement": "variation in the paired AUC of VM26", "setting": "[1]; after CSA versus VM26 alone", "result": 50, "unit": "%"}, {"measurement": "decrease of systemic clearance of VM26", "setting": "[1]; when CSA was added, P<0.01", "result": 1.4, "unit": "fold"}, {"measurement": "fraction of total clearance resulting from renal clearance", "setting": "[2]; VM26 alone", "result": "< 6", "unit": "%"}, {"measurement": "Decrease of total Cl of VM26", "setting": "[2]; VM26 plus CSA versus VM26 alone, seven patients, P<0.05", "result": 21, "unit": "%"}, {"measurement": "objective responses", "setting": "[3]; VM26 alone 200 mg m-2 day-1 i.v., sixteen patients", "result": "No objective responses"}, {"measurement": "progressive disease, patients", "setting": "[3]; [6]", "result": "six"}, {"measurement": "stable disease, patients", "setting": "[3]; [6]", "result": "three"}, {"measurement": "Response (VM26)", "setting": "[3]; patient 1, 2 cycles", "result": "SD (stable disease)"}, {"measurement": "Response (VM26)", "setting": "[3]; patient 2, 2 cycles", "result": "PD (progressive disease)"}, {"measurement": "Response (VM26)", "setting": "[3]; patient 3, 2 cycles", "result": "PD (progressive disease)"}, {"measurement": "Response (VM26)", "setting": "[3]; patient 4, 2 cycles", "result": "PD (progressive disease)"}, {"measurement": "Response (VM26)", "setting": "[3]; patient 5, 2 cycles", "result": "SD (stable disease)"}, {"measurement": "Response (VM26)", "setting": "[3]; patient 6, 2 cycles", "result": "SD (stable disease)"}, {"measurement": "Response (VM26)", "setting": "[3]; patient 7, 2 cycles", "result": "PD (progressive disease)"}, {"measurement": "Response (VM26)", "setting": "[3]; patient 8, 2 cycles", "result": "PD (progressive disease)"}, {"measurement": "Response (VM26)", "setting": "[3]; patient 9, 2 cycles", "result": "PD (progressive disease)"}, {"measurement": "ANC/AUC ratio (nadir ANC standardized for AUC of VM26)", "setting": "[4]", "result": "7.38 ± 5.51"}, {"measurement": "bilirubin (in the normal range)", "setting": "[4]", "result": "< 1.5", "unit": "mg 100 ml-1"}, {"measurement": "cutaneous eruption, patients", "setting": "[4]", "result": "one patient"}, {"measurement": "cycles with significant vomiting, mucositis or constipation", "setting": "[4]", "result": "< 15 % of cycles"}, {"measurement": "grade 3 neutropenia, patients", "setting": "[4]", "result": "three"}, {"measurement": "hair loss, patients", "setting": "[4]", "result": "all patients"}, {"measurement": "nadir neutrophil count (ANC), median", "setting": "[4]", "result": 1900, "unit": "µL⁻¹"}, {"measurement": "nadir neutrophil count (ANC), range", "setting": "[4]", "result": "200 to 6000", "unit": "µL⁻¹"}]}
